Data reported in patent US7655633B2, “Nitrogen-containing heterocyclic derivatives, medicinal compositions containing the same and medicinal use thereof” (Kissei Pharmaceutical Co., Ltd., priority 2002, dated 2010).

Molecular target: T1, human SGLT2 (Homo sapiens, UniProt P31639)
T1 construct: expressed in transfected cells
T1 sequence (P31639 1-672): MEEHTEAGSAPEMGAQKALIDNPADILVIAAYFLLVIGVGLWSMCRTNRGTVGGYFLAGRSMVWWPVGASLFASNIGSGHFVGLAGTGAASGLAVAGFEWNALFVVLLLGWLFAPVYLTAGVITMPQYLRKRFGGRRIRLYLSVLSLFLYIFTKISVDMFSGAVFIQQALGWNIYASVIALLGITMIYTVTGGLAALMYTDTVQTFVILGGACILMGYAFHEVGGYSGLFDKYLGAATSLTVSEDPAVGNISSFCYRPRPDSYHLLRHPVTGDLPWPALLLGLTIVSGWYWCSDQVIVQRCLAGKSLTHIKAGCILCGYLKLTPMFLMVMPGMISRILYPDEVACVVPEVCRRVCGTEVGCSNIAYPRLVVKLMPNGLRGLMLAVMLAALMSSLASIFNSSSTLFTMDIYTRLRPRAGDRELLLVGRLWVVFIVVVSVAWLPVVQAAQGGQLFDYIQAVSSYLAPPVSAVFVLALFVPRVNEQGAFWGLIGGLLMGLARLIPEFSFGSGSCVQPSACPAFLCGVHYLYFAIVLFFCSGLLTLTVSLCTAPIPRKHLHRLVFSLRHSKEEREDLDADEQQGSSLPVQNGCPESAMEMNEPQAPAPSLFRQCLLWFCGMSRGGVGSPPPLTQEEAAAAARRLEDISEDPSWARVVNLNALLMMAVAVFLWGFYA
Assay: Assay for inhibitory effects on human SGLT2 activity (uptake of methyl-α-D-glucopyranoside in CS2-5E cells)
Assay type: cell-based
Details: inhibition of 14C-labeled α-MG (1 mM) uptake, CHO-K1 cells stably expressing human SGLT2 (CS2-5E), 37° C., 1 hour
Description: Assay for Inhibitory Effects on Human SGLT2 Activity
1) Cloning and Construction of the Vector Expressing Human SGLT2
The cDNA library was prepared for PCR amplification by reverse transcription from total RNA deprived from human kidney (Ori gene) using oligo-dT as a primer. Using this cDNA library as a template, the base sequence coding 2 to 2039 bp of human SGLT2 (ACCESSION: M95549, M95299), which was reported by R. G. Wells et al., was amplified by PCR method and inserted into the multi-cloning site of pcDNA3.1(−) (Invitrogen). The DNA sequence inserted was perfectly matched to the previously reported sequence.
2) Establishment of Cell Line Stably Expressing Human SGLT2
The expression vector of human SGLT2 was digested by Sca I into a linear DNA. The linear DNA was transfected into CHO-K1 cells by means of lipofection (Effectene Transfection Reagent: QIAGEN). Neomycin resistant cell lines were obtained by culture in the medium containing 1 mg/mL of G418 (LIFE TECHNOLOGIES), and then the activity against the uptake of methyl-α-D-gluco-pyranoside was measured by the method described below. […] Afterward, CS2-5E cells were cultured in the presence of G418 at 200 μg/mL. […]
CS2-5E cells were seeded into a 96-well culture plate at a density of 3×10^4 cells/well and cultured for 2 days, and were used in the uptake assay. […] Radioactivity was measured by means of scintillation counter (Packard). […]

IC50: 3 nM
SMILES: Cc1cc(C)c(Cc2ccc(C)c(F)c2)c(O[C@@H]2O[C@H](CO)[C@@H](O)[C@H](O)[C@H]2O)n1 [Example 1, 2-(β-D-Glucopyranosyloxy)-3-(3-fluoro-4-methylbenzyl)-4,6-dimethylpyridine]
